{"source": "paper PMC5529566", "about": "“The cryo-EM structure of gastric H^+,K^+-ATPase with bound BYK99, a high-affinity member of K^+-competitive, imidazo[1,2-a]pyridine inhibitors” (Scientific Reports, 2017)", "key": {"H^+,K^+-ATPase D136L": {"target": "H^+,K^+-ATPase D136L (Sus scrofa, UniProt P19156, D137L)", "assay": "ATPase assay, D136L mutant"}, "H^+,K^+-ATPase Y140L": {"target": "H^+,K^+-ATPase Y140L (Sus scrofa, UniProt P19156, Y141L)", "assay": "ATPase assay, Y140L mutant"}, "H^+,K^+-ATPase A125S": {"target": "H^+,K^+-ATPase A125S (Sus scrofa, UniProt P19156, A126S)", "assay": "ATPase assay, A125S mutant"}, "H^+,K^+-ATPase F332I": {"target": "H^+,K^+-ATPase F332I (Sus scrofa, UniProt P19156, F333I)", "assay": "ATPase assay, F332I mutant"}, "H^+,K^+-ATPase N138A": {"target": "H^+,K^+-ATPase N138A (Sus scrofa, UniProt P19156, N139A)", "assay": "ATPase assay, N138A mutant"}, "H^+,K^+-ATPase D137I": {"target": "H^+,K^+-ATPase D137I (Sus scrofa, UniProt P19156, D138I)", "assay": "ATPase assay, D137I mutant"}, "H^+,K^+-ATPase A125F": {"target": "H^+,K^+-ATPase A125F (Sus scrofa, UniProt P19156, A126F)", "assay": "ATPase assay, A125F mutant"}, "H^+,K^+-ATPase D136A": {"target": "H^+,K^+-ATPase D136A (Sus scrofa, UniProt P19156, D137A)", "assay": "ATPase assay, D136A mutant"}, "H^+,K^+-ATPase D137F": {"target": "H^+,K^+-ATPase D137F (Sus scrofa, UniProt P19156, D138F)", "sequence (P19156 whole entry D138F)": "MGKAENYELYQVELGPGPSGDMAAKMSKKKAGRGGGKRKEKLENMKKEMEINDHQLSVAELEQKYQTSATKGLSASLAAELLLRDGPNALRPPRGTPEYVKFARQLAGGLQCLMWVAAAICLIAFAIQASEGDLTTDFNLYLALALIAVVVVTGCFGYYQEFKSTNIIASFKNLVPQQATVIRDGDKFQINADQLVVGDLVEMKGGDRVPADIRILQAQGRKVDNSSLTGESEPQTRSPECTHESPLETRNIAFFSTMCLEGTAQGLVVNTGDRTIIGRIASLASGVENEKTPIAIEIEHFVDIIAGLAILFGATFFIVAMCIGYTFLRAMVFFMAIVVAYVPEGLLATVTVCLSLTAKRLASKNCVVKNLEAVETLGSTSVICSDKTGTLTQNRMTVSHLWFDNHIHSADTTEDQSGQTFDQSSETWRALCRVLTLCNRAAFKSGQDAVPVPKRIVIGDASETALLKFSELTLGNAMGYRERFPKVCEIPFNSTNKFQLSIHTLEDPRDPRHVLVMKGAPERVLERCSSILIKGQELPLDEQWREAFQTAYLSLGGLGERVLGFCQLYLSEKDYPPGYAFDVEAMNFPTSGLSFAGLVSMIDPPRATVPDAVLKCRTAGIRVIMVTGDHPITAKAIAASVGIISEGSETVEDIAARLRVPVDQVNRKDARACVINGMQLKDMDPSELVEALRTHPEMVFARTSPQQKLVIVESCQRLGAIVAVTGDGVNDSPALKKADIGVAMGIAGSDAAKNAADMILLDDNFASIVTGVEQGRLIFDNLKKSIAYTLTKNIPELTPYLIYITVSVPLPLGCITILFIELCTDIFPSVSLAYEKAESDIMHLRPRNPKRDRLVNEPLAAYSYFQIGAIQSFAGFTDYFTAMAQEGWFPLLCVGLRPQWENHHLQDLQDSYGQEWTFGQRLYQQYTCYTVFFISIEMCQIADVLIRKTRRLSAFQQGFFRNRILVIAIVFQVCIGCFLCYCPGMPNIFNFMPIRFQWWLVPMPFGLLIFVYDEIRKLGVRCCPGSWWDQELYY", "sequence (P18434 whole entry partner)": "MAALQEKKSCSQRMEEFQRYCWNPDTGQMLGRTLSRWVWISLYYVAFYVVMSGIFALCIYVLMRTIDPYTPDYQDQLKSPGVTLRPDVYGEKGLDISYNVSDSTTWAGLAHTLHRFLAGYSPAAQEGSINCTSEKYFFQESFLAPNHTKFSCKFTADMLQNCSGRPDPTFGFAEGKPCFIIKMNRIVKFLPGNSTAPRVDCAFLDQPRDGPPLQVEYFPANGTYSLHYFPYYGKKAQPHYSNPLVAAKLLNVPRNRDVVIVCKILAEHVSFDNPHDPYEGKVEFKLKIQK", "assay": "ATPase assay, D137F mutant"}, "H^+,K^+-ATPase V331A": {"target": "H^+,K^+-ATPase V331A (Sus scrofa, UniProt P19156, V332A)", "assay": "ATPase assay, V331A mutant"}, "H^+,K^+-ATPase WT": {"target": "T1, H^+,K^+-ATPase WT (Sus scrofa, UniProt P19156)", "T1 construct": "made in house; host or cells: HEK293S GnT1- cells (BacMam baculovirus transduction); permeabilised membrane fractions", "assay": "K^+-competitive inhibition of H^+,K^+-ATPase activity, 96-well ATPase assay, wild-type", "type": "biochemical, pig", "conditions": "WT"}, "H^+,K^+-ATPase L141I": {"target": "H^+,K^+-ATPase L141I (Sus scrofa, UniProt P19156, L142I)", "assay": "ATPase assay, L141I mutant"}, "H^+,K^+-ATPase N138I": {"target": "H^+,K^+-ATPase N138I (Sus scrofa, UniProt P19156, N139I)", "assay": "ATPase assay, N138I mutant"}, "H^+,K^+-ATPase V338A": {"target": "H^+,K^+-ATPase V338A (Sus scrofa, UniProt P19156, V339A)", "sequence (P19156 whole entry V339A)": "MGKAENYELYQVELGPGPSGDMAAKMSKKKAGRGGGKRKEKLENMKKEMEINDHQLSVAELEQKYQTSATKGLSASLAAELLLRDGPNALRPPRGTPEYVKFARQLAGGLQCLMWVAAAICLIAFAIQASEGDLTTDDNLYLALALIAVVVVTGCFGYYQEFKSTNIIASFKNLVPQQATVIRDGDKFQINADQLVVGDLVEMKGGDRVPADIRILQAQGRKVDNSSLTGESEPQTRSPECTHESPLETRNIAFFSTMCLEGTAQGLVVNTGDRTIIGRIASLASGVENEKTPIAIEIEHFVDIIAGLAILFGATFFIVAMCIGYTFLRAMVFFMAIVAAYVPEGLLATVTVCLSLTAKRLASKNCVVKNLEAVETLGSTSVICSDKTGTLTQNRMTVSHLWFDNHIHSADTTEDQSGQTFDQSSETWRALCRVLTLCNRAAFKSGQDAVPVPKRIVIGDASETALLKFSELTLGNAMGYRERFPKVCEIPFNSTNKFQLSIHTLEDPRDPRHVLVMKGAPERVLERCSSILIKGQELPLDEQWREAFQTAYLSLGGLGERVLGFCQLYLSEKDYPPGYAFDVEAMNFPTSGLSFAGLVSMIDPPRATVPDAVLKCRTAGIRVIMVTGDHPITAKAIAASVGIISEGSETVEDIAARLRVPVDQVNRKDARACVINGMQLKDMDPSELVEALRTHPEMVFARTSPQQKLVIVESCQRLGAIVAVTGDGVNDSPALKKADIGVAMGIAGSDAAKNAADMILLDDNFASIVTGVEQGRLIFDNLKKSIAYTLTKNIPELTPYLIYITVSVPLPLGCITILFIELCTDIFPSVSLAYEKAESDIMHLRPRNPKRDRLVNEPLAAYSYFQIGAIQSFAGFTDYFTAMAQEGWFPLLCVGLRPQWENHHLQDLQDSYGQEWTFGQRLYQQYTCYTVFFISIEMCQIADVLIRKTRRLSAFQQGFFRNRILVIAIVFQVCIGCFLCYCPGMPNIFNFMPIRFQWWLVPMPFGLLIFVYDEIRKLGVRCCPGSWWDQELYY", "sequence (P18434 whole entry partner)": "as the sequence (P18434 whole entry partner) above", "assay": "ATPase assay, V338A mutant"}, "[1]": {"target": "H^+,K^+-ATPase D137N/N138D (Sus scrofa, UniProt P19156, D138N/N139D)", "assay": "ATPase assay, D137N/N138D mutant"}, "H^+,K^+-ATPase D136F": {"target": "H^+,K^+-ATPase D136F (Sus scrofa, UniProt P19156, D137F)", "assay": "ATPase assay, D136F mutant"}, "H^+,K^+-ATPase Y799A": {"target": "H^+,K^+-ATPase Y799A (Sus scrofa, UniProt P19156, Y800A)", "assay": "ATPase assay, Y799A mutant"}, "H^+,K^+-ATPase": {"system": "H^+,K^+-ATPase", "design": "method as in doi:10.1016/j.tetlet.2006.02.156", "conditions": "cited from earlier work"}, "H^+,K^+-ATPase D137L": {"target": "H^+,K^+-ATPase D137L (Sus scrofa, UniProt P19156, D138L)", "sequence (P19156 whole entry D138L)": "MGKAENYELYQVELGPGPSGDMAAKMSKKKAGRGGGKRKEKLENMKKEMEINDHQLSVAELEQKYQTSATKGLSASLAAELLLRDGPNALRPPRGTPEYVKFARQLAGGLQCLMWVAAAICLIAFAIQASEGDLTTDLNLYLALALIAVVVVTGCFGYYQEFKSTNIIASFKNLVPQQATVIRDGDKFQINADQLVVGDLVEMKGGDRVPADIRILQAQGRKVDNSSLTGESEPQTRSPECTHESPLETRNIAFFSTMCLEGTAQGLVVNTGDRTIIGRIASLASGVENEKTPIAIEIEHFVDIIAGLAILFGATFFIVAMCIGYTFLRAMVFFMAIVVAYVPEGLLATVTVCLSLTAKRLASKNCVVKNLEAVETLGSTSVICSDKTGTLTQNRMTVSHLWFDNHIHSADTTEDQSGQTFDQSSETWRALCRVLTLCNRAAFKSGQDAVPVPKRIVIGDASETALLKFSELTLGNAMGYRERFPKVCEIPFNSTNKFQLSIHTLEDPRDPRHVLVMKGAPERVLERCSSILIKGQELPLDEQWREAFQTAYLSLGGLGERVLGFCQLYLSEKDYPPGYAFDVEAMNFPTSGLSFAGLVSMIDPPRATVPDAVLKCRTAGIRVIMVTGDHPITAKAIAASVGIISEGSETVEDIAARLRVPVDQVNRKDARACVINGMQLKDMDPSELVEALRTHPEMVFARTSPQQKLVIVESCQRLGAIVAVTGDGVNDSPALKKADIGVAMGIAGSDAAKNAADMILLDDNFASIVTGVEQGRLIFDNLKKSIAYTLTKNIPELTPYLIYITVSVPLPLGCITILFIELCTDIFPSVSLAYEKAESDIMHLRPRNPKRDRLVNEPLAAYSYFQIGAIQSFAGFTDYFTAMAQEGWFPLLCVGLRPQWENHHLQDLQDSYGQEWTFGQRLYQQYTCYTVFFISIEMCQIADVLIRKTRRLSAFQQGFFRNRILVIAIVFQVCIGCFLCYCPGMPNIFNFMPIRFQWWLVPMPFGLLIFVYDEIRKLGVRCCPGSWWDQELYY", "sequence (P18434 whole entry partner)": "as the sequence (P18434 whole entry partner) above", "assay": "ATPase assay, D137L mutant"}, "H^+,K^+-ATPase D137N": {"target": "H^+,K^+-ATPase D137N (Sus scrofa, UniProt P19156, D138N)", "sequence (P19156 whole entry D138N)": "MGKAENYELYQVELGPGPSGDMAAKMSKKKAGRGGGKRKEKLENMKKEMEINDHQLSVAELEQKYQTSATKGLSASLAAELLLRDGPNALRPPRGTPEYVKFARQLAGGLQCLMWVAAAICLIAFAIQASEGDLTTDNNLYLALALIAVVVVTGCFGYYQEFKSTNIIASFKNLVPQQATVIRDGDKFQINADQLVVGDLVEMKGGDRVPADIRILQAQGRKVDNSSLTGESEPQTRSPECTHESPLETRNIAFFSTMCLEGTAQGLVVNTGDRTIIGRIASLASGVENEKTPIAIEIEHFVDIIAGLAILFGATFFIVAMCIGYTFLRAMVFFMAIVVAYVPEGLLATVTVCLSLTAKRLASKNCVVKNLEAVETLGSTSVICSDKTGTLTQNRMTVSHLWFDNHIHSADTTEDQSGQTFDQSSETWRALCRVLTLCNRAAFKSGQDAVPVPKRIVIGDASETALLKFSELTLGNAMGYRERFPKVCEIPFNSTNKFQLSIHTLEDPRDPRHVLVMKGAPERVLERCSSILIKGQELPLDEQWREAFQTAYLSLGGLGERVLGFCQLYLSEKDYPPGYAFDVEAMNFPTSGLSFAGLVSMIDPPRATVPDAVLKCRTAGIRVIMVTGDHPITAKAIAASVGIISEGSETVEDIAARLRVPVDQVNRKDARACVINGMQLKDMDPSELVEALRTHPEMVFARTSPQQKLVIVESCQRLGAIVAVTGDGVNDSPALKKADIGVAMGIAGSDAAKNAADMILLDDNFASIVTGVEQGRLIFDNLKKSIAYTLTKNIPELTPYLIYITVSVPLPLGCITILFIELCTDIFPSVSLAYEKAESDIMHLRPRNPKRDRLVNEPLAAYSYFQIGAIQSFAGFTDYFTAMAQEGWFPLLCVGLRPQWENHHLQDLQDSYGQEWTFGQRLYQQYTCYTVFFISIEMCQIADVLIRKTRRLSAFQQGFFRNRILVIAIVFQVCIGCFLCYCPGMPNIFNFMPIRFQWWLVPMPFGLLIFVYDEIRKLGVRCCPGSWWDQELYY", "sequence (P18434 whole entry partner)": "as the sequence (P18434 whole entry partner) above", "assay": "ATPase assay, D137N mutant"}, "H^+,K^+-ATPase Q127F": {"target": "H^+,K^+-ATPase Q127F (Sus scrofa, UniProt P19156, Q128F)", "assay": "ATPase assay, Q127F mutant"}}}
{"smiles": "Cc1nc2c3c(ccn2c1C)[C@@H](O)[C@H](O)[C@@H](c1ccccc1)N3", "note": "[BYK99]", "values": [{"measurement": "Ki", "setting": "H^+,K^+-ATPase D136L", "value": "5.3 ± 0.5", "unit": "nM"}, {"measurement": "-fold increase in K i compared with wild-type", "setting": "H^+,K^+-ATPase D136L; D136L", "value": 0.9, "unit": "fold"}, {"measurement": "Ki", "setting": "H^+,K^+-ATPase Y140L", "value": "5.3 ± 0.4", "unit": "nM"}, {"measurement": "-fold increase in K i compared with wild-type", "setting": "H^+,K^+-ATPase Y140L; Y140L", "value": 0.9, "unit": "fold"}, {"measurement": "Ki", "setting": "H^+,K^+-ATPase A125S", "value": "27 ± 2", "unit": "nM"}, {"measurement": "-fold increase in K i compared with wild-type", "setting": "H^+,K^+-ATPase A125S; A125S", "value": 4.6, "unit": "fold"}, {"measurement": "Ki", "setting": "H^+,K^+-ATPase F332I", "value": "8.9 ± 0.7", "unit": "nM"}, {"measurement": "-fold increase in K i compared with wild-type", "setting": "H^+,K^+-ATPase F332I; F332I", "value": 1.5, "unit": "fold"}, {"measurement": "Ki", "setting": "H^+,K^+-ATPase N138A", "value": "1.4 ± 0.3", "unit": "nM"}, {"measurement": "-fold increase in K i compared with wild-type", "setting": "H^+,K^+-ATPase N138A; N138A", "value": 0.2, "unit": "fold"}, {"measurement": "Ki", "setting": "H^+,K^+-ATPase D137I", "value": "62 ± 15", "unit": "nM"}, {"measurement": "-fold increase in K i compared with wild-type", "setting": "H^+,K^+-ATPase D137I; D137I", "value": 11, "unit": "fold"}, {"measurement": "Ki", "setting": "H^+,K^+-ATPase A125F", "value": "12 ± 1", "unit": "nM"}, {"measurement": "-fold increase in K i compared with wild-type", "setting": "H^+,K^+-ATPase A125F; A125F", "value": 2.1, "unit": "fold"}, {"measurement": "Ki", "setting": "H^+,K^+-ATPase D136A", "value": "10 ± 1", "unit": "nM"}, {"measurement": "-fold increase in K i compared with wild-type", "setting": "H^+,K^+-ATPase D136A; D136A", "value": 1.7, "unit": "fold"}, {"measurement": "Ki", "setting": "H^+,K^+-ATPase D137F", "value": "640 ± 110", "unit": "nM"}, {"measurement": "-fold increase in K i compared with wild-type", "setting": "H^+,K^+-ATPase D137F; D137F", "value": 110, "unit": "fold"}, {"measurement": "Ki", "setting": "H^+,K^+-ATPase V331A", "value": "47 ± 3", "unit": "nM"}, {"measurement": "-fold increase in K i compared with wild-type", "setting": "H^+,K^+-ATPase V331A; V331A", "value": 8.1, "unit": "fold"}, {"measurement": "-fold increase in K i compared with wild-type", "setting": "H^+,K^+-ATPase WT", "value": 1.0, "unit": "fold"}, {"measurement": "Ki", "setting": "H^+,K^+-ATPase WT; global fitting, mean ± SEM", "value": "5.8 ± 0.6", "unit": "nM"}, {"measurement": "Ki", "setting": "H^+,K^+-ATPase L141I", "value": "8.4 ± 1.5", "unit": "nM"}, {"measurement": "-fold increase in K i compared with wild-type", "setting": "H^+,K^+-ATPase L141I; L141I", "value": 1.4, "unit": "fold"}, {"measurement": "Ki", "setting": "H^+,K^+-ATPase N138I", "value": "34 ± 8", "unit": "nM"}, {"measurement": "-fold increase in K i compared with wild-type", "setting": "H^+,K^+-ATPase N138I; N138I", "value": 5.9, "unit": "fold"}, {"measurement": "Ki", "setting": "H^+,K^+-ATPase V338A", "value": "50 ± 7", "unit": "nM"}, {"measurement": "-fold increase in K i compared with wild-type", "setting": "H^+,K^+-ATPase V338A; V338A", "value": 8.6, "unit": "fold"}, {"measurement": "Ki", "setting": "[1]", "value": "110 ± 10", "unit": "nM"}, {"measurement": "-fold increase in K i compared with wild-type", "setting": "[1]; D137N/N138D", "value": 19, "unit": "fold"}, {"measurement": "Ki", "setting": "H^+,K^+-ATPase D136F", "value": "5.9 ± 0.7", "unit": "nM"}, {"measurement": "-fold increase in K i compared with wild-type", "setting": "H^+,K^+-ATPase D136F; D136F", "value": 1.0, "unit": "fold"}, {"measurement": "Ki", "setting": "H^+,K^+-ATPase Y799A", "value": "> 1000", "unit": "nM"}, {"measurement": "-fold increase in K i compared with wild-type", "setting": "H^+,K^+-ATPase Y799A; Y799A", "value": "> 170", "unit": "fold"}, {"measurement": "fold higher affinity than SCH28080", "setting": "H^+,K^+-ATPase", "value": "more than 20 fold"}, {"measurement": "Ki", "setting": "H^+,K^+-ATPase D137L", "value": "220 ± 40", "unit": "nM"}, {"measurement": "-fold increase in K i compared with wild-type", "setting": "H^+,K^+-ATPase D137L; D137L", "value": 38, "unit": "fold"}, {"measurement": "Ki", "setting": "H^+,K^+-ATPase D137N", "value": "450 ± 100", "unit": "nM"}, {"measurement": "-fold increase in K i compared with wild-type", "setting": "H^+,K^+-ATPase D137N; D137N", "value": 78, "unit": "fold"}, {"measurement": "fold lower affinity than WT", "setting": "H^+,K^+-ATPase D137N; D137N vs WT", "value": "more than 60 fold"}, {"measurement": "Ki", "setting": "H^+,K^+-ATPase Q127F", "value": "41 ± 7", "unit": "nM"}, {"measurement": "-fold increase in K i compared with wild-type", "setting": "H^+,K^+-ATPase Q127F; Q127F", "value": 7.1, "unit": "fold"}]}
